Experimental data from US20250188037A1, “N-(PYRROLIDIN-3-YL OR PIPERIDIN-4-YL)ACETAMIDE DERIVATIVES” (Takeda Pharmaceutical Company Limited, priority 2022, published 2025).

Columns and labels:
SSTR4 [1] = target: T1, SSTR4 (Homo sapiens (Human), UniProt P31391); test: Inhibition of forskolin stimulated cAMP in cells overexpressing SSTR4; type: cell-based; details: inhibition of forskolin stimulated cAMP in CHO-K1 cells overexpressing SSTR4; read-out: SSTR4 Activity pEC50 (converted)
Experimental: Inhibition of Forskolin Stimulated cAMP in Cells Overexpressing SSTR4
This cell-based assay measures the ability of compounds to inhibit forskolin stimulated cAMP in CHO-K1 cells overexpressing SSTR4. CHO-K1 cells overexpressing SSTR4 (CHO-SSTR4) are purchased from DiscoveRx (product code 95-0059C2). The CHO-SSTR4 cells are maintained in F12K media with 10% Fetal Bovine Serum (Hyclone), 1% Pen/Strep (Life Technologies), and 800 μg/mL G418 (Life Technologies). […] The next day, the culture media is removed from the cells and the cells are washed (added then removed) with Krebs Ringer Buffer (ZenBio, KRB-1000 mL). […] The cells are incubated in 10 μL compound/stimulation buffer for 30 minutes at room temperature. Cellular cAMP levels are detected with a HTRF LANCE Ultra cAMP kit (Perkin Elmer, catalog number TRF0264).
The assay is performed in accordance with the manufacturer's instructions. […] of diluted Eu—W8044 labeled streptavidin (dilution: 1:50 in cAMP Detection Buffer) is added to each well. Then 5 μL of diluted biotin cAMP (dilution: 1:150 in cAMP Detection Buffer) is added to each well. The plates are covered and allowed to incubate for 60 minutes at room temperature on a shaker. […] The pEC50 values are generated using Activity Base for Screening Data Management.

SSTR4 [2] = target: T1, SSTR4; test: SSTR4 I-125 somatostatin competition binding assay; details: for SSTR4 Binding pIC50: membranes from CHO-K1 cells overexpressing SSTR4
Excerpt: The scintillator sheets are melted to filters using a heat block.

SSTR1 = SSTR1 (Homo sapiens (Human), UniProt P30872);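 further: binding assay on CHO-K1 cell membranes overexpressing SSTR1, incubated 60 min at room temperature, bound fraction collected on filters and read by scintillation counting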
SSTR1, sequence (P30872 whole entry): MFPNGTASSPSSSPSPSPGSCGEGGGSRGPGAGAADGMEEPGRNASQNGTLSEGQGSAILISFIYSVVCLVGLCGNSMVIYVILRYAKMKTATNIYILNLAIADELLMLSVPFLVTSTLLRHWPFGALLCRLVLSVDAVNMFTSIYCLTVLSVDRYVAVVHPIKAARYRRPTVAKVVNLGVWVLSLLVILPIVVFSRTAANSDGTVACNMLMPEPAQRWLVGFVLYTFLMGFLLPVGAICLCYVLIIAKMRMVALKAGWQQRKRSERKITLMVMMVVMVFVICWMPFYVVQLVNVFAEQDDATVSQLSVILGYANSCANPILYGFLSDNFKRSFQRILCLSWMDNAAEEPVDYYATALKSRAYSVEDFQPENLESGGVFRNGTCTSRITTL
Experimental: Membranes from CHO-K1 cells overexpressing SSTR1 are purchased from Perkin Elmer (catalog number ES-520-M400UA). […] Then 10 μg of SSTR1 membranes in 50 μL assay buffer are added per well. The plate is incubated for 60 minutes at room temperature. […] The contents of the assay plate are transferred to filters with a TomTech harvester and washed 5 times with 20 mM HEPES, 100 mM NaCl. […] The scintillator sheets are melted to the filters using a heat block. The filters are then read in a MicroBeta scintillation counter. Binding Ki curves are generated using Activity Base for Screening Data Management and the results are reported as pIC50.

T1 sequence (P31391 whole entry): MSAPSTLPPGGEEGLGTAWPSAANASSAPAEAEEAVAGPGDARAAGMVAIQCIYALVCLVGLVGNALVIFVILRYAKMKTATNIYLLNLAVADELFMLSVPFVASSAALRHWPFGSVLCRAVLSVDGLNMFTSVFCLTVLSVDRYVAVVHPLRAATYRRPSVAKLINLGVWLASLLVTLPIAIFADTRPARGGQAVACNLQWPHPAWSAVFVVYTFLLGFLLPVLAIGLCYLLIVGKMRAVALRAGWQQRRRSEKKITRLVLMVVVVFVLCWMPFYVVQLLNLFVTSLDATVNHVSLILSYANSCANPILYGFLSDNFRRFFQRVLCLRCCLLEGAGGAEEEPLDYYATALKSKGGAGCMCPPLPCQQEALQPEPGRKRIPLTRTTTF

| SMILES | EC50 (SSTR4 [1]) [µM] | SSTR4 Binding pIC50 (SSTR4 [2]) | IC50 (SSTR1) [µM] | IC50 (SSTR4 [2]; membranes from CHO-K1 cells overexpressing SSTR4, read-out: SSTR4 Binding pIC50 (converted)) [µM] |
| --- | --- | --- | --- | --- |
| C[C@H]1CNCC[C@@H]1NC(=O)C(F)(F)Oc1ccc(F)cc1 [Example 58, 2,2-difluoro-2-(4-fluorophenoxy)-N-((3S,4S)-3-methylpiperidin-4-yl)acetamide] | 0.00501 | 6.77 | 46.8 |  |
| C[C@H]1CNCC[C@@H]1NC(=O)C(F)(F)Oc1cccc(F)c1 [Example 55, 2,2-difluoro-2-(3-fluorophenoxy)-N-((3S,4S)-3-methylpiperidin-4-yl)acetamide] | 0.00525 | 7.13 | > 50.1 |  |
| Cc1ccccc1OC(F)(F)C(=O)N[C@H]1CCNC[C@@H]1C [Example 56, 2,2-difluoro-N-((3S,4S)-3-methylpiperidin-4-yl)-2-(o-tolyloxy)acetamide] | 0.0017 | 7.14 | 44.7 |  |
| C[C@H]1CNCC[C@@H]1NC(=O)C(F)(F)Oc1ccccc1F [Example 54, 2,2-difluoro-2-(2-fluorophenoxy)-N-((3S,4S)-3-methylpiperidin-4-yl)acetamide] | 0.0214 | 6.55 | > 50.1 |  |
| COc1cccc(CC2(C(=O)N[C@H]3CCNC[C@@H]3F)CC2)c1 [Example 46, N-((3S,4S)-3-fluoropiperidin-4-yl)-1-(3-methoxybenzyl)cyclopropane-1-carboxamide] | 0.0117 | 7.29 | > 50.1 |  |
| CN1CCC(NC(=O)C(F)(F)Oc2ccccc2)CC1 [Example 28, 2,2-difluoro-N-(1-methylpiperidin-4-yl)-2-phenoxyacetamide] | 0.195 |  |  |  |
| C[C@H]1CNCC[C@@H]1NC(=O)C(F)(F)Cc1ccccc1 [Example 26, 2,2-difluoro-N-((3S,4S)-3-methylpiperidin-4-yl)-3-phenylpropanamide] | 0.0148 | 7.15 | > 50.1 |  |
| C[C@H]1C[C@@H](NC(=O)C(F)(F)Oc2ccccc2)CCN1 (relative stereo) [Example 50, 2,2-difluoro-N-(cis-2-methylpiperidin-4-yl)-2-phenoxyacetamide] | 0.0575 |  |  | 1.32 |
| C[C@@H]1C[C@@H](NC(=O)C(F)(F)Oc2ccccc2)CCN1 [Example 52, 2,2-difluoro-N-((2R,4S)-2-methylpiperidin-4-yl)-2-phenoxyacetamide] | 0.17 |  |  |  |
| O=C(N[C@H]1CCNC[C@@H]1F)C1(Oc2ccccc2C2CC2)CC1 [Example 60, 1-(2-cyclopropylphenoxy)-N-((3S,4S)-3-fluoropiperidin-4-yl)cyclopropane-1-carboxamide] | 0.174 |  |  |  |
| O=C(N[C@H]1CCNC[C@@H]1F)C1(Cc2cccc(Cl)c2)CC1 [Example 27, 1-(3-chlorobenzyl)-N-((3S,4S)-3-fluoropiperidin-4-yl)cyclopropane-1-carboxamide] | 0.0102 | 7.25 | > 50.1 |  |
| O=C(N[C@H]1CCNC[C@@H]1F)C1(Cc2cccc(F)c2)CC1 [Example 44, 1-(3-fluorobenzyl)-N-((3S,4S)-3-fluoropiperidin-4-yl)cyclopropane-1-carboxamide] | 0.0204 |  |  |  |
| CC(Oc1ccccc1Cl)C(=O)N[C@@H]1CCN(C)[C@H](C)C1 (stereo partly drawn) [Example 67, 2-(2-chlorophenoxy)-N-((2R,4R)-1,2-dimethylpiperidin-4-yl)propanamide] | 0.132 |  |  |  |
| CC(Oc1cccc(Cl)c1Cl)C(=O)N[C@H]1CCNC[C@@H]1F (stereo partly drawn) [Example 61, 2-(2,3-dichlorophenoxy)-N-((3S,4S)-3-fluoropiperidin-4-yl)propanamide] | 0.123 |  |  |  |
| O=C(N[C@H]1CCNC[C@@H]1F)C1(Oc2cccc(Cl)c2)CC1 [Example 59, 1-(3-chlorophenoxy)-N-((3S,4S)-3-fluoropiperidin-4-yl)cyclopropane-1-carboxamide] | 0.0589 |  |  |  |

Further lines, results first:

| EC50 (SSTR4 [1]) [µM] | SSTR4 Binding pIC50 (SSTR4 [2]) | IC50 (SSTR1) [µM] | IC50 (SSTR4 [2]; membranes from CHO-K1 cells overexpressing SSTR4, read-out: SSTR4 Binding pIC50 (converted)) [µM] | SMILES |
| --- | --- | --- | --- | --- |
| 0.0347 |  |  |  | Cc1cccc(CC2(C(=O)NC3CN(C)CC3c3ccccc3)CC2)c1 (centres unmarked) [Example 2, N-(1-methyl-4-phenylpyrrolidin-3-yl)-1-(3-methylbenzyl)cyclopropane-1-carboxamide] |
| 0.141 |  |  |  | Cc1ccc(CC2(C(=O)N[C@@H]3CCN(C)C[C@H]3C)CC2)cc1 (relative stereo) [Example 11, N-(trans-1,3-dimethylpiperidin-4-yl)-1-(4-methylbenzyl)cyclopropane-1-carboxamide] |
| 0.102 |  |  |  | CN1CC[C@H](NC(=O)C2(Cc3ccc(Cl)cc3)CC2)[C@@H](F)C1 [Example 39, 1-(4-chlorobenzyl)-N-((3S,4S)-3-fluoro-1-methylpiperidin-4-yl)cyclopropane-1-carboxamide] |
| 0.0234 | 6.56 | 4.68 |  | C[C@H]1CN(C)CC[C@@H]1NC(=O)C1(Cc2cccc(Cl)c2)CC1 [Example 36, 1-(3-chlorobenzyl)-N-((3S,4S)-1,3-dimethylpiperidin-4-yl)cyclopropane-1-carboxamide] |
| 0.0316 | 6.55 | 8.32 |  | Cc1cccc(CC2(C(=O)NC3CN(C)CC3C)CC2)c1 (centres unmarked) [Example 6, N-(1,4-dimethylpyrrolidin-3-yl)-1-(3-methylbenzyl)cyclopropane-1-carboxamide] |
| 0.182 |  |  |  | O=C(NC1CCN2CCCC12)C1(Oc2ccccc2Cl)CC1 (centres unmarked) [Example 9, 1-(2-chlorophenoxy)-N-(hexahydro-1H-pyrrolizin-1-yl)cyclopropane-1-carboxamide] |
| 0.00275 | 7.45 | 8.71 |  | C[C@H]1CNCC[C@@H]1NC(=O)C1(Cc2ccc(F)cc2)CC1 [Example 13, 1-(4-fluorobenzyl)-N-((3S,4S)-3-methylpiperidin-4-yl)cyclopropane-1-carboxamide] |
| 0.117 |  |  |  | C[C@H]1CN(C)CC[C@@H]1NC(=O)C(F)(F)Oc1ccccc1 [Example 40, N-((3S,4S)-1,3-dimethylpiperidin-4-yl)-2,2-difluoro-2-phenoxyacetamide] |
| 0.0891 |  |  |  | C[C@@H]1CN(C)CC[C@H]1NC(=O)C1(Cc2ccccc2Cl)CC1 (relative stereo) [Example 17, 1-(2-chlorobenzyl)-N-(trans-1,3-dimethylpiperidin-4-yl)cyclopropane-1-carboxamide] |
| 0.0776 |  |  |  | C[C@@H]1CN(C)CC[C@H]1NC(=O)C1(Cc2cccc(F)c2)CC1 (relative stereo) [Example 20, N-(trans-1,3-dimethylpiperidin-4-yl)-1-(3-fluorobenzyl)cyclopropane-1-carboxamide] |
| 0.182 |  |  |  | CC1CC(NC(=O)C2(Oc3ccccc3Cl)CC2)CCN1C (centres unmarked) [Example 8, 1-(2-chlorophenoxy)-N-(1,2-dimethylpiperidin-4-yl)cyclopropane-1-carboxamide] |
| 0.178 |  |  |  | CC[C@@H]1CN(C)CC[C@H]1NC(=O)C1(Oc2ccccc2Cl)CC1 (relative stereo) [Example 7, 1-(2-chlorophenoxy)-N-(trans-3-ethyl-1-methylpiperidin-4-yl)cyclopropane-1-carboxamide] |
| 0.0427 |  |  |  | CC[C@@H]1CN(C)CC[C@H]1NC(=O)C1(Cc2cccc(C)c2)CC1 (relative stereo) [Example 21, N-(trans-3-ethyl-1-methylpiperidin-4-yl)-1-(3-methylbenzyl)cyclopropane-1-carboxamide] |
| 0.0141 |  |  |  | Cc1ccccc1CC1(C(=O)N[C@H]2CCN(C)C[C@@H]2C)CC1 [Example 38, N-((3S,4S)-1,3-dimethylpiperidin-4-yl)-1-(2-methylbenzyl)cyclopropane-1-carboxamide] |
